In ChEMBL document CHEMBL1144640, “Novel pyrazole derivatives as potent inhibitors of type II topoisomerases. Part 1: synthesis and preliminary SAR analysis” (Bioorg Med Chem Lett, 2007):
Values after ≈ are worked out from the molar mass of the structure shown.

Legend:
[1] = Inhibition of bacterial DNA gyrase; set-up: species or system Bacteria
[2] = tested on: Escherichia coli; test: Antibacterial activity against Escherichia coli KL16; format: functional
[3] = tested on: Staphylococcus aureus; test: Antibacterial activity against Staphylococcus aureus ATCC 13709; format: functional
[4] = tested on: Streptococcus pneumoniae; test: Antibacterial activity against Streptococcus pneumonia ATCC 49619; format: functional
[5] = Inhibition of bacterial topoisomerase 4; set-up: species or system Bacteria

Structure (SMILES)	IC50 [1]	MIC [2]	MIC [3]	MIC [4]	IC50 [5]
COc1ccc2nccc(-n3cc4c(n3)CCC(NCc3ccc5c(c3)NC(=O)CS5)C4)c2c1 (stereo not given)	0.25 µg/mL (≈ 0.53 µM)	2 µg/mL (≈ 4.24 µM)	0.25 µg/mL (≈ 0.53 µM)	0.5 µg/mL (≈ 1.06 µM)	0.03 µg/mL (≈ 0.0636 µM)
COc1ccc2nccc(-n3cc4c(n3)CCC(NC(=O)c3ccc5c(c3)NC(=O)CS5)C4)c2c1 (stereo not given)	1 µg/mL (≈ 2.06 µM)	4 µg/mL (≈ 8.24 µM)	4 µg/mL (≈ 8.24 µM)	2 µg/mL (≈ 4.12 µM)	0.125 µg/mL (≈ 0.257 µM)
COc1ccc2nccc(-n3cc4c(n3)CCC(NCc3ccc5c(c3)NC(=O)CS5)C4)c2n1 (stereo not given)	0.25 µg/mL (≈ 0.529 µM)	1 µg/mL (≈ 2.12 µM)	0.25 µg/mL (≈ 0.529 µM)	2 µg/mL (≈ 4.23 µM)	0.016 µg/mL (≈ 0.0339 µM)
COc1ccc2nccc(-n3cc4c(n3)CCC(NC(=O)c3ccc5c(c3)NC(=O)CS5)C4)c2n1 (stereo not given)	0.06 µg/mL (≈ 0.123 µM)	128 µg/mL (≈ 263 µM)	0.125 µg/mL (≈ 0.257 µM)	4 µg/mL (≈ 8.22 µM)	0.25 µg/mL (≈ 0.514 µM)
COc1ccc2nccc(-n3cc4c(n3)CCN(C(=O)c3ccc5c(c3)NC(=O)CS5)CC4)c2n1	0.25 µg/mL (≈ 0.514 µM)	2 µg/mL (≈ 4.11 µM)	1 µg/mL (≈ 2.06 µM)	2 µg/mL (≈ 4.11 µM)	
COc1ccc2nccc(-n3cc4c(n3)CC(NC(=O)c3ccc5c(c3)NC(=O)CS5)CC4)c2c1 (stereo not given)	> 8 µg/mL	8 µg/mL (≈ 16.5 µM)	8 µg/mL (≈ 16.5 µM)	4 µg/mL (≈ 8.24 µM)	0.5 µg/mL (≈ 1.03 µM)
COc1ccc2nccc(-n3cc4c(n3)CCC(NCc3ccc5c(c3)OCCO5)C4)c2c1 (stereo not given)	2 µg/mL (≈ 4.52 µM)	64 µg/mL (≈ 145 µM)	0.5 µg/mL (≈ 1.13 µM)	0.5 µg/mL (≈ 1.13 µM)	0.06 µg/mL (≈ 0.136 µM)

Second part, led by results:

IC50 [1]	MIC [2]	MIC [3]	MIC [4]	Structure (SMILES)	IC50 [5]
> 8 µg/mL	> 128 µg/mL	> 128 µg/mL	> 128 µg/mL	COc1ccc2nccc(-n3cc4c(n3)CCN(Cc3ccc5c(c3)OCCO5)C4)c2c1	
> 8 µg/mL	> 128 µg/mL	> 128 µg/mL	> 128 µg/mL	COc1ccc2nccc(-n3ncc4c3CCN(Cc3ccc5c(c3)OCCO5)C4)c2c1	
> 8 µg/mL	> 128 µg/mL	16 µg/mL (≈ 36.2 µM)	32 µg/mL (≈ 72.3 µM)	COc1ccc2nccc(-n3ncc4c3CCC(NCc3ccc5c(c3)OCCO5)C4)c2c1 (stereo not given)	
2 µg/mL (≈ 4.24 µM)	> 128 µg/mL	> 128 µg/mL	> 128 µg/mL	COc1ccc2nccc(-n3ncc4c3CCC(NCc3ccc5c(c3)NC(=O)CS5)C4)c2c1 (stereo not given)	
